Assay [1] has as its system rats. Put plainly: Relation of perfluorocarbon hemodynamic effects to NO: L-NAME and potassium nitrite treated rats, mean arterial pressure. The assay is classed as in vivo, rat.
In assay [2] the test system is rats. Put plainly: Plasma low molecular weight S-nitrosothiols and mean arterial pressure after Perftoran and thiols in rats. The settings on record: cysteine 1 mg/kg intravenously, without perfluorocarbon. The class given is in vivo, rat. The method, then:
Plasma low molecular weight-S-nitrosothiols were determined using CuCl2 to displace NO from thiol residues followed by electrochemical detection of released NO (Rafikova et al., 2002). The concentration of CuCl2, 40 μM, was selected to decompose predominantly low molecular weight S-nitrosothiols.

For assay [3], the system named is nitrosothiols formation. The assay is described as follows: Effect of α-dihydrolipoic acid on nitrosothiol formation and vasorelaxation in the presence of perfluorocarbons. Conditions: FIG. 8, in vitro and in vivo. An excerpt: If delivered at small concentrations, i.e., less than 1% v/v, and in conjunction with low molecular weight nucleophiles, such as thiols or mixtures of thiols, perfluorocarbons act as a powerful vasodilator rather than as a vasoconstrictor. NO^+ originated from N2O3 in the perfluorocarbon micelles can be transferred to various low molecular weight nucleophiles, exemplified as RSH, by two possible pathways, as shown in FIG. 7. Direct attack on RSH is possible at the surface of perfluorocarbon micelles or inside the micelles, if the RSH were hydrophobic enough to enter it, as shown in pathway I of FIG. 7. Additionally, NO can reach various RSH via a transnitrosation reaction by using a lipophilic low molecular weight “shuttle”, as shown in FIG. 7. One example of such an NO shuttle is α-lipoic acid (α-LA), which is normally present in the circulation at low (micromolar) concentrations (Keipert, 2001). α-lipoic acid has a highly hydrophobic tail (FIG. 7A), which can readily penetrate the perfluorocarbon micelle where it is nitrosated. Since both SH groups of α-dihydro-lipoic acid are located next to each other, upon nitrosation they would almost immediately form an S-S adduct and release NO^+. […]

The structures appear in SMILES notation.

Consider `O=N[O-].[K+]` [potassium nitrite], for which the “effect on mean arterial pressure after L-NAME” value in assay [1] (1 mg/kg potassium nitrite about 90 minutes after L-NAME) is “partially restored mean arterial pressure”. Further, the “mean arterial pressure above the baseline” value in assay [1] (nitrite-treated (L-NAME) rats without Perftoran, same time) was “about 24 mmHg”.

As for `N[C@@H](CS)C(=O)O` [cysteine, L-cysteine], in assay [2], the “effect on blood pressure” value is “virtually no effect” and the “effect on plasma low molecular weight S-nitrosothiols” value is “virtually no effect”.

Consider `O=C(O)CCCC[C@@H](S)CCS` [α-dihydrolipoic acid], for which the “effect on formation of nitrosothiols and vasorelaxation” value in assay [3] is “simulating effect”.

For the origin of these results see US7767232B2, “Control of nitric oxide bioactivity by perfluorocarbons” (New York University, priority 2002, dated 2010).
